We go through three compounds from article PMC8531552, “Full-Length Galectin-3 Is Required for High Affinity Microbial Interactions and Antimicrobial Activity” (Frontiers in Microbiology, 2021).

In assay [1] the test system is K. pneumoniae O1. In words: Flow cytometry analysis of galectin binding to intact bacteria. Details: species or system Klebsiella pneumoniae O1. The protocol: (§1) To examine potential binding by each galectin, bacteria were resuspended and washed twice in PBS at 4°C and then incubated with 0.1μM Alexa Fluor™ 488 labeled Gal-3 or Gal-3C at 4°C for 20min. In some experiments, Gal-3 or Gal-3C were co-incubated with 20mM thiodigalactoside (TDG) for 10min before incubation with the bacteria as a control. After incubation, cells were washed twice and resuspended them in 400μl PBS for flow cytometry analysis using FACSCanto II flow cytometer (BD Biosciences). The data were processed with FlowJo version 10.

For assay [2], the system named is P. alcalifaciens O5. The assay is described as above. Set-up: species or system Providentia alcalifaciens O5. The protocol:
as §1

Assay [3] deals with T1, human Gal-3C (C-terminal domain of Gal-3) (Homo sapiens, UniProt P17931).
T1 construct: made in house; host or cells: E. coli BL21 (DE3)
Briefly: CFG glycan microarray binding of Alexa Fluor 488 labeled Gal-3C. As to the method:
(§2) Galectins were labeled with Alexa Fluor™ 488 NHS Ester (succinimidyl ester) by incubating 2mg/ml galectin with 1mg Alexa Fluor™ 488 for 1h at room temperature and avoid from light as outlined previously ([Stowell et al., 2004]). […] While 2-ME is not required for Gal-3 activity, this approach was used to provide a consistent protocol for all galectin purification. […] Finally, labeled galectin was applied to CFG glycan microarray (CFG) and MGM prepared as described previously ([Blixt et al., 2004]; [Stowell et al., 2008a], [2014]; [Song et al., 2009]; [Wu et al., 2021a]). […] The slide was dried by microcentrifugation, and an image of bound fluorescence was obtained using a microarray scanner (GenePix 4000 B, Molecular devices). […] For non-saturated positive glycan interactions, the relative fluorescence units were plotted as a percent of the maximal binding at the highest concentration examined.
(§3) In order to compare the relative binding affinities of Gal-3 and Gal-3C toward blood group antigens and other glycan structures present on the array, we calculated the relative KD generated from binding isotherm data for each galectin toward various blood group antigens, polylactosamine (polyLacNAc), and other common structural modifications previously shown to influence galectin recognition (e.g., α2-6 sialylation).

The target of a further assay is T2, human Gal-3 (Homo sapiens, UniProt P17931).
T2 construct: made in house; host or cells: E. coli BL21 (DE3)
Briefly: CFG glycan microarray binding of Alexa Fluor 488 labeled Gal-3. The protocol:
as §2, §3

In assay [4] the test system is P. alcalifaciens O5. Briefly: Bacteria viability by CFU enumeration. The settings on record: 37°C, 2h. Type of assay: cell-based, Providentia alcalifaciens O5. As to the method: (§4) When assaying potential antimicrobial effects of Gal-3 and Gal-3C, each strain was assessed in the mid-logarithmic growth phase (OD600 of ~0.1) and grown in LB media as outlined previously ([Arthur et al., 2015b]). Bacterial cells were incubated with the concentrations of each galectin indicated in the figure legends (0.04–10μM) at 37°C for 2h with shaking at 250rpm. Bacteria were then pipetted and plated on LB agar plate to determine the number of viable bacteria by CFU enumeration.

In assay [5] the test system is K. pneumoniae O1. In words: Bacteria viability by CFU enumeration. Type of assay: cell-based, Klebsiella pneumoniae O1. The settings on record: 37°C, 2h. The protocol: as §4
Assay [6] has as its system P. alcalifaciens O21. Briefly: Flow cytometry analysis of galectin binding to intact bacteria. The following applies: 0.1μM Alexa Fluor 488 labeled galectin, 4°C, 20min. Set-up: species or system Providentia alcalifaciens O21. As to the method: as §1
Assay [7] concerns P. alcalifaciens O21. Briefly: Bacteria viability by CFU enumeration. It counts as cell-based, Providentia alcalifaciens O21. The following applies: 0.04–10μM, 37°C, 2h. As to the method:
as §4

A further assay relates to K. pneumoniae O4. In words: Bacteria viability by CFU enumeration. It counts as cell-based, Klebsiella pneumoniae O4. The following applies: 0.04–10μM, 37°C, 2h. The protocol: as §4
Setting [8] is: 20mM TDG co-incubated with galectin.
The mark [9] stands for this setting: 0.1μM Alexa Fluor 488 labeled galectin, 4°C, 20min.

pEC50: −log10 of the molar value.

T1 sequence (P17931 118-248 limits assumed): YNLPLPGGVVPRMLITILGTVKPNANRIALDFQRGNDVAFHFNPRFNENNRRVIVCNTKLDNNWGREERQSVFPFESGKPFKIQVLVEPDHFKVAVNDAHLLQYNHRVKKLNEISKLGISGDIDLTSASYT
T2 sequence (P17931 whole entry): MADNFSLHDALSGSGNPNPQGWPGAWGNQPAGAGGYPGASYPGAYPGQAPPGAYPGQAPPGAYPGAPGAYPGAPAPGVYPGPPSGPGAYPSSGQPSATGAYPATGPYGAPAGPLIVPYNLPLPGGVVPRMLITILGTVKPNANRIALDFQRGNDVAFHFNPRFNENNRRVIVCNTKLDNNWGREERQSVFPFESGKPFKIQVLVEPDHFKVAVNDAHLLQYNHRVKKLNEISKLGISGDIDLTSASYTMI

For `OC[C@H]1O[C@@H](S[C@@H]2O[C@H](CO)[C@H](O)[C@H](O)[C@H]2O)[C@H](O)[C@@H](O)[C@H]1O` [TDG, thiodigalactoside, reference compound], the “effect on Gal-3 and Gal-3C binding to K. pneumoniae O1” value with K. pneumoniae O1 [1] (setting [8]) was “prevented binding”. In the assay on P. alcalifaciens O5 [2] (setting [8]), the “effect on Gal-3 and Gal-3C engagement of P. alcalifaciens O5” value is “inhibited recognition”.
Take blood group B: in assay [3] (CFG array), the “Gal-3C concentration required for similar absolute binding as Gal-3 at […]” value is 3.3 µM. In addition, the “Gal-3C binding on CFG array” value in assay [3] (binding isotherms, Fig 2) is recorded as “high affinity interactions”. The “Gal-3 concentration at which recognition was observed” value at human Gal-3 (CFG array, virtually no binding at or below 0.12μM) is 0.36 µM. For the same compound, the “Gal-3 binding on CFG array” value at human Gal-3 (binding isotherms, Fig 2 and 3) was “high affinity interactions”.
Take “Gal-3: recombinant human galectin-3, full-length chimeric galectin expressed in E. coli”: the “impact on viability of P. alcalifaciens O5” value in the assay with P. alcalifaciens O5 [4] (0.04–10μM) was “reduced viability”. Besides, the pEC50 in the assay on P. alcalifaciens O5 [4] (CFU enumeration, read-out: effective concentration 50 (EC50), viability of P. alcalifaciens O5) is about 6.77; in the assay on K. pneumoniae O1 [5] (CFU enumeration, read-out: EC50 toward K. pneumoniae O1 viability), 6.12. The “impact on viability of K. pneumoniae O1” value with K. pneumoniae O1 [5] (0.04–10μM) is “loss of microbial viability was noted at higher concentrations”. Further, the “binding to P. alcalifaciens O21” value in the assay on P. alcalifaciens O21 [6] is given as “failed to result in any detectable binding”. Further, the “impact on viability of P. alcalifaciens O21” value with P. alcalifaciens O21 [7] was “failed to result in any detectable impact on microbial viability”. For the same compound, in the assay on K. pneumoniae O1 [1] (setting [9]), the “binding to K. pneumoniae O1” value is “bound K. pneumoniae O1”. The “binding to P. alcalifaciens O5” value with P. alcalifaciens O5 [2] (setting [9]) is reported as “Clear interactions”. For the same compound, the “impact on viability of K. pneumoniae O4” value in the assay on K. pneumoniae O4 is “failed to impact the viability”.
